Measured values as given in ChEMBL document CHEMBL4138083, “Design, synthesis and primary biological evaluation of the novel 2-pyridone derivatives as potent non-nucleoside HBV inhibitors” (Eur J Med Chem, 2017).
pIC50: −log10 of the molar value.

Assays:
Hepatitis B virus [1] = experiment: Antiviral activity against Hepatitis B virus infected in human HepG2.2.15 cells assessed as inhibition of viral DNA replication at 20 uM after 8 days by real time fluorescent PCR method relative to control; type: functional; settings: HepG2.2.15, 192 h
[2] = Cytotoxicity against human HepG2.2.15 cells assessed as reduction in cell viability after 8 days by CCK-8 assay; type: cell-based, HepG2 2.2.15
Hepatitis B virus [3] = experiment: Antiviral activity against Hepatitis B virus infected in human HepG2.2.15 cells assessed as inhibition of HBsAg secretion after 8 days by ELISA; type: functional, organism-based; settings: HepG2.2.15, 192 h
Hepatitis B virus [4] = experiment: Antiviral activity against Hepatitis B virus infected in human HepG2.2.15 cells assessed as inhibition of HBeAg secretion after 8 days by ELISA; type: functional, organism-based; settings: HepG2.2.15, 192 h
[5] = Selectivity index, ratio of CC50 for human HepG2.2.15 cells to IC50 for Hepatitis B virus infected in human HepG2.2.15 cells assessed as inhibition of HBsAg secretion; type: toxicity, cell-based; settings: read-out: Ratio CC50/IC50
[6] = Selectivity index, ratio of CC50 for human HepG2.2.15 cells to IC50 for Hepatitis B virus infected in human HepG2.2.15 cells assessed as inhibition of HBeAg secretion; type: toxicity, cell-based; settings: read-out: Ratio CC50/IC50
Hepatitis B virus [7] = experiment: Antiviral activity against Hepatitis B virus infected in human HepG2.2.15 cells assessed as inhibition of viral DNA replication at 4 uM after 8 days by real time fluorescent PCR method relative to control; type: functional; settings: HepG2.2.15, 192 h
Hepatitis B virus [8] = experiment: Antiviral activity against Hepatitis B virus infected in human HepG2.2.15 cells assessed as inhibition of viral DNA replication at 0.8 uM after 8 days by real time fluorescent PCR method relative to control; type: functional; settings: HepG2.2.15, 192 h
Hepatitis B virus [9] = experiment: Antiviral activity against Hepatitis B virus infected in human HepG2.2.15 cells assessed as inhibition of viral DNA replication at 0.16 uM after 8 days by real time fluorescent PCR method relative to control; type: functional; settings: HepG2.2.15, 192 h
Hepatitis B virus [10] = experiment: Antiviral activity against Hepatitis B virus infected in human HepG2.2.15 cells assessed as inhibition of viral DNA replication after 8 days by real time fluorescent PCR method; type: functional, organism-based; settings: HepG2.2.15, 192 h
Hepatitis B virus [11] = experiment: Antiviral activity against Hepatitis B virus assessed as inhibition of HBsAg secretion; type: functional, organism-based

Structure (SMILES)	pIC50 (Hepatitis B virus [3])	pIC50 (Hepatitis B virus [4])	pIC50 (Hepatitis B virus [10])	pIC50 (Hepatitis B virus [11])	inhibition at 20 µM (Hepatitis B virus [1]) [%]	CC50 at 192 h [2] [µM]	selectivity ratio [5]	selectivity ratio [6]	inhibition at 4 µM (Hepatitis B virus [7]) [%]	inhibition at 0.8 µM (Hepatitis B virus [8]) [%]	inhibition at 0.16 µM (Hepatitis B virus [9]) [%]
COc1ccc(-c2cc(NC(=O)c3ccc(Cl)cc3O)c[nH]c2=O)cc1	4.10	4.11	–	–	22.9	50.5	0.64	0.66	–	–	–
COc1ccc(C(=O)Nc2c[nH]c(=O)c(-c3cc(C)ccc3C)c2)c(O)c1	4.29	4.59	–	–	< 0	50.4	0.98	1.95	–	–	–
CCOc1ccc(-c2cc(NC(=O)c3cc(OC)ccc3O)c[nH]c2=O)cc1	4.31	4.29	–	–	46	57.7	1.17	1.13	–	–	–
COc1ccc(-c2cc(NC(=O)c3ccc(C)cc3O)c[nH]c2=O)cc1	4.05	4.63	–	–	58.1	46.1	0.51	1.96	–	–	–
CCOc1ccc(-c2cc(NC(=O)c3ccc(C)cc3O)c[nH]c2=O)cc1	4.21	4.04	–	–	36.4	> 100	> 1.61	> 1.09	–	–	–
Cc1cccc(-c2cc(NC(=O)c3ccc(F)cc3O)c[nH]c2=O)c1	4.18	4.49	–	–	37.6	37.2	0.57	1.15	–	–	–
COc1ccc(C(=O)Nc2c[nH]c(=O)c(-c3ccc(OC)c(F)c3)c2)c(O)c1	4.28	4.50	–	–	–	50.5	0.97	1.6	–	–	–
CCOc1ccc(-c2cc(NC(=O)c3ccc(OC)cc3O)c[nH]c2=O)cc1	4.36	4.38	–	–	4.2	69.6	1.58	1.68	–	–	–
COc1cccc(C(=O)Nc2c[nH]c(=O)c(-c3cccc(C)c3)c2)c1O	4.02	< 4.00	–	–	–	> 100	> 1.06	–	–	–	–
Cc1cccc(-c2cc(NC(=O)c3ccc(C)cc3O)c[nH]c2=O)c1	< 4.00	4.41	–	–	–	75	< 0.75	1.91	–	–	–
COc1ccc(C(=O)Nc2c[nH]c(=O)c(-c3cccc(C)c3)c2)c(O)c1	< 4.00	4.35	–	–	60.9	> 100	–	> 2.24	–	–	–
Cc1cccc(-c2cc(NC(=O)c3ccccc3O)c[nH]c2=O)c1	< 4.00	4.23	–	–	25.5	98.8	< 0.99	1.69	–	–	–
COc1ccc(-c2cc(NC(=O)c3ccccc3O)c[nH]c2=O)cc1	< 4.00	4.33	–	–	37.9	> 100	–	> 2.16	–	–	–
CCOc1ccc(-n2cc(C(=O)c3ccc(OC)cc3O)ccc2=O)cc1	< 4.00	4.29	–	–	53.3	> 100	–	> 1.94	–	–	–
Nc1ccn([C@@H]2CS[C@H](CO)O2)c(=O)n1 [LAMIVUDINE]	< 4.00	< 4.00	6.30	–	81.9	> 100	–	–	80.8	56.2	37
COc1c(O)cc2occ(-c3ccc(O)cc3)c(=O)c2c1O [TECTORIGENIN]	–	–	–	4.27	–	–	–	–	–	–	–

Continued, in another order:

pIC50 (Hepatitis B virus [3])	pIC50 (Hepatitis B virus [4])	pIC50 (Hepatitis B virus [10])	pIC50 (Hepatitis B virus [11])	Structure (SMILES)	inhibition at 20 µM (Hepatitis B virus [1]) [%]	CC50 at 192 h [2] [µM]	selectivity ratio [5]	selectivity ratio [6]	inhibition at 4 µM (Hepatitis B virus [7]) [%]	inhibition at 0.8 µM (Hepatitis B virus [8]) [%]	inhibition at 0.16 µM (Hepatitis B virus [9]) [%]
4.58	4.57	–	–	Cc1cccc(-c2cc(NC(=O)c3ccc(C(F)(F)F)cc3O)c[nH]c2=O)c1	23.2	24.2	0.92	0.9	–	–	–
4.58	4.62	–	–	COc1ccc(C(=O)Nc2c[nH]c(=O)c(-c3ccc4c(c3)OCO4)c2)c(O)c1	51.9	25.2	0.95	1.04	–	–	–
4.82	4.61	–	–	CCOc1ccc(-c2cc(NC(=O)c3ccccc3O)c[nH]c2=O)cc1	37.8	41	2.69	1.66	–	–	–
4.41	4.65	–	–	Cc1cccc(-c2cc(NC(=O)c3ccc(Cl)cc3O)c[nH]c2=O)c1	26.5	33.1	0.85	1.48	–	–	–
4.46	4.48	–	–	COc1ccc(-c2cc(NC(=O)c3cccc(OC)c3O)c[nH]c2=O)cc1	25.3	49.2	1.43	1.5	–	–	–
4.64	4.64	–	–	CCOc1ccc(-c2cc(NC(=O)c3ccc(Cl)cc3O)c[nH]c2=O)cc1	21.9	28.6	1.23	1.25	–	–	–
4.60	4.60	–	–	Cc1cc(C)cc(-c2cc(NC(=O)c3ccccc3O)c[nH]c2=O)c1	21.5	25.1	0.99	0.99	–	–	–
4.58	4.76	–	–	COc1ccc(-c2cc(NC(=O)c3ccc(OC)cc3O)c[nH]c2=O)cc1	59.3	49.9	1.92	2.86	–	–	–
4.52	4.38	–	–	CCOc1ccc(-c2cc(NC(=O)c3cccc(OC)c3O)c[nH]c2=O)cc1	24.9	34.5	1.13	0.83	–	–	–
4.62	4.62	5.47	–	CCOc1ccc(-c2cc(NC(=O)c3ccc(C(F)(F)F)cc3O)c[nH]c2=O)cc1	76.8	22.2	0.94	0.92	47.3	39.5	4.7
4.49	4.48	–	–	COc1ccc(C(=O)Nc2c[nH]c(=O)c(-c3ccc(C)c(C)c3)c2)c(O)c1	< 0	31.3	0.97	0.94	–	–	–
4.68	4.77	–	–	COc1ccc(O)c(C(=O)Nc2c[nH]c(=O)c(-c3cccc(C)c3)c2)c1	40.3	30.1	1.44	1.78	–	–	–
4.55	4.22	–	–	CCOc1ccc(-c2cc(NC(=O)c3ccc(F)cc3O)c[nH]c2=O)cc1	–	51.5	1.81	0.85	–	–	–
